Reference: publication PMC11203957, “Naphthoquinone-Quinolone Hybrids with Antitumor Effects on Breast Cancer Cell Lines—From the Synthesis to 3D-Cell Culture Effects” (International Journal of Molecular Sciences, 2024)

Tests used:
MCF10A = assay: MTT cell viability assay, non-tumor MCF10A; conditions: Homo sapiens, MCF-10A, 24 h, read-out: IC50 ± SEM MCF10A
MCF-7 [1] = assay: MTT cell viability assay, MCF-7 (2D culture); type: cell-based, human; conditions: for IC50: Homo sapiens, MCF7, MTT, 24 h treatment, 2D culture, read-out: IC50 ± SEM MCF-7; for SI IC50 MCF10A/IC50 MCF-7: selectivity index
Experimental: (§1) Our first approach to assessing the anticancer activity of the novel 1,4-naphthoquinone/4-quinolone conjugates 11a–f on breast cancer cells involved comparing their effects in the MTT cell viability assay to determine the half-maximal inhibitory concentration (IC50) in the 2D cell culture model. Doxorubicin and 1,4-naphthoquinone were used as controls. Concentration-response curves were obtained with the conjugates at concentrations ranging from 0 to 200 µM. […] This observation aligns with the structural characteristics of this derivative, which features the largest alkyl substituent at position R^1.
(§2) The IC50 values were calculated using GraphPad Prism v. 8.0.1, and the selectivity index was estimated as the ratio between the IC50 value of MCF10A/IC50 value of MDA-MB-231 or MCF-7 [33], for each compound.

MCF-7 cells [2] = assay: Annexin V/PI apoptosis assay, MCF-7; type: cell-based, human; conditions: 50 µM
Experimental: (§3) We investigated apoptosis induction through the annexin V/PI protocol, as described in Section 3. Doxorubicin, 1,4-naphthoquinone, and cisplatin were used as controls. […] For MDA-MB-231 cells (Figure 5B), the effects observed were more prominent at the concentrations tested.
(§4) For the apoptosis assay, the manufacturer’s instructions were followed (Dead Cell Apoptosis Kit with Annexin V for Flow Cytometry, Thermo Fisher Scientific, MA, USA). The cells were analyzed in a Countess II FL cell counter (Thermo Fisher Scientific, Waltham, MA, USA).
(§5) Figure 5 Naphthoquinone-quinolone hybrids induce apoptosis in MCF-7 (A) and MDA-MB-231 (B) cells at different levels.

MDA-MB-231 = assay: MTT cell viability assay, MDA-MB-231 (2D culture); type: cell-based, human; conditions: for IC50: Homo sapiens, MDA-MB-231, MTT, 24 h treatment, 2D culture, read-out: IC50 ± SEM MDA-MB-231; for SI IC50 MCF10A/ IC50 MDA-MB-231: selectivity index
Experimental: as §1, §2

MDA-MB-231 cells [3] = assay: Annexin V/PI apoptosis assay, MDA-MB-231; type: cell-based, human; conditions: 50 µM
Experimental: as §3, §4, §5

[4] = test system: gastric cancer cells ACP03; parameters: method as in PMID 24858098; conditions: cited from earlier work
topoisomerase II = test system: topoisomerase II; parameters: method as in PMID 24858098; conditions: in vitro and in silico studies; cited from earlier work
[5] = test system: hepatocellular carcinoma (BEL7402); parameters: method as in PMID 22406451; conditions: cited from earlier work
MCF-7 spheroids = assay: 3D-cell culture (spheroids), morphology and acid phosphatase viability, MCF-7; type: cell-based, human; conditions: 25 µM, 48 h
Text: 3D-cell cultures display features that resemble in vivo tumors: due to their tridimensional structure, cells are not provided with the same amounts of oxygen and nutrients in the center as on the surface, resulting in a gradient that leads to the formation of a necrotic core, similar to the in vivo tumor environment. In the 3D-cell culture model used here, spheroids are formed due to low interaction with the microplate bottom, promoted by its coating with agarose, and strong cell-to-cell interactions in MCF-7 cells, generating a finely compact and homogeneous spheroid. For MDA-MB-231 cells, the addition of collagen I is an extra stimulus necessary for spheroid stabilization. Spheroids were prepared and grown for 48 h and then treated with the compounds at 25 µM. After 48 h, morphological changes were observed, and their viabilities were measured as described in Section 3. The exposure to the compounds for 48 h promoted visible changes in the morphologies of spheroids for both cell lines when compared to the controls (Figure 8). […] While it is more complicated to imply changes in the proliferative (surface) region of the MDA-MB-231 spheroids (Figure 8B), they are observed together with morphological changes after treatment, making them appear more crumbly and lose their round shape. These findings are in line with the viability test, which detected a reduction in the viabilities for all of them, which is significant compared to the control (p < 0.05), except for 11a in MDA-MB-231 spheroids (Figure 8C,D). We should also highlight that the concentrations necessary for an effect on spheroids are expected to be higher when compared to 2D-cell culture models. Here, we observed changes using 25 µM of each compound, as performed in the other experiments.
The procedure was performed as described by Gong et al., with a few modifications. A total of 5000 cells per well were plated on 96-well plates with bottoms previously covered with 50 µL of a 1% agarose solution. The plates were then centrifuged at 300× g for 10 min. For MDA-MB-231 cells, collagen I from rat tail (Gibco) was added to a 3 µg/mL final concentration in the cell suspension. […] The cell spheroids/aggregates were treated with fresh medium added to the compounds and their viability was evaluated after 48 h. Spheroids were photographed with an inverted microscope Bel INV-100 (Bel Engineering, Monza, Italy) equipped with a digital camera.
To measure spheroids viability, this viability assay was performed following Friedrich et al.. The medium was removed from wells and spheroids were washed with PBS. Then, 100 µL of a solution containing 2 mg/mL p-nitrophenyl phosphate (PNPP), 0.1 M citric acid, and 0.1% (v/v) Triton X, pH 5.0 were added. […]

[6] = test system: cervix adenocarcinoma (HeLa); parameters: method as in PMID 22406451; conditions: cited from earlier work
MDA-MB-231 cells [7] = assay: Clonogenic assay, MDA-MB-231; type: cell-based, human; conditions: 25 µM, 24 h treatment, about 14 days growth
Text: (§6) The clonogenic assay is an effective tool for investigating individual cells’ ability to form colonies. Tumor cells with the ability to generate an expanding family of descendants are clonogenic. Therefore, a clonogenic assay is a simple method to verify one of the important characteristics of cancer cells, which is the ability to detach from the site of origin and to form metastases in other locations. […] For instance, 90–99% of the tumor cells in FaDU tumors, a type of human squamous cell carcinoma observed in nude mice, are non-clonogenic. To achieve the main goal of cancer treatment, which is tumor eradication, it is necessary to inactivate all clonogenic cells through either cell killing or the induction of a permanent state of dormancy, thereby eliminating their clonogenic capacity. The assessment of the potential of a drug to achieve a curative outcome, i.e., effectively neutralizing clonogenic tumor cells, requires the utilization of experimental endpoints that accurately reflect the response of clonogenic cells. Clonogenic endpoints hold particular significance when novel anticancer agents are incorporated into curative therapeutic regimens, such as in combination with radiotherapy or chemotherapy. Thus, clonogenic assays were conducted for compounds 11a–f and 1,4-naphthoquinone.
(§7) Figure 6 The inhibition of colony formation by compounds 11a–f using MCF-7 (A,C) and MDA-MB-231 (B,D) cell lines. Cells were treated with derivatives 11a–f at 25 µM for 24 h. Subsequently, 400 cells were plated on 6-well plates for approximately 14 days. Then, cells were stained with crystal violet dye to visualize the colonies formed.

MDA-MB-231 cells [8] = assay: Reversibility assay (MTT viability), MDA-MB-231; type: cell-based, human; conditions: 25 µM; 24 h, 24 + 24 h, 48 h
Experimental: (§8) Our next issue concerned the reversibility of the effects: whether they persisted through a longer time of treatment, or if they ceased after the removal of the treatments. To investigate this, we used each compound at 25 µM and treated the MCF-7 and MDA-MB-231 cells for 24 h and 48 h. The 48-h treatment group was further subdivided into two different categories: the first was treated for 24 h, after which the culture medium was replaced with fresh medium without the compound, and then incubated for an additional 24-h period (24 + 24 h). In the second category, cells were continuously exposed to the compound for the entire 48-h duration, without any handling during this period. Cell viability was assessed as the evaluation parameter. The results are shown in Figure 7A (MCF-7) and Figure 7B (MDA-MB-231). […] In MCF-7 cells, the effect observed is similar, with a lower intensity of apoptosis induction.
(§9) Figure 7 Reversibility assay: investigating the effects of treatment durability on cell viability of (A) MCF-7 cells and (B) MDA-MB-231 cells. Cells were treated in three different manners: (1) for 24 h, continuously; (2) for 24 h, followed by removal of the treatment and addition of fresh medium, then further cultivation for 24 h; and (3) for a total period of 48 h. Cell viability was measured using the MTT assay. * p < 0.05, Student’s t-test, n = 3.

MCF-7 [9] = assay: Clonogenic assay, MCF-7; type: cell-based, human; conditions: 25 µM, 24 h treatment, about 14 days growth
Text: as §6, §7

MCF-7 cells [10] = assay: Reversibility assay (MTT viability), MCF-7; type: cell-based, human; conditions: 25 µM; 24 h, 24 + 24 h, 48 h
Experimental: as §8, §9

Compound | IC50 (MCF-7 [1]) | IC50 (MDA-MB-231) | melting point | IC50 (MCF10A) | SI IC50 MCF10A/IC50 MCF-7 (MCF-7 [1]) | early apoptosis induction (annexin V/PI), MCF-7 (MCF-7 cells [2]) | SI IC50 MCF10A/ IC50 MDA-MB-231 (MDA-MB-231) | apoptosis profile (annexin V/PI), MDA-MB-231 (MDA-MB-231 cells [3]) | IC50 [4] | topoisomerase II activity inhibition (topoisomerase II) | IC50 [5] | spheroid morphology, MCF-7 (MCF-7 spheroids) | IC50 [6] | colony formation, MDA-MB-231 (MDA-MB-231 cells [7]) | duration and reversibility of the effect on cell viability, MDA-MB-231 (MDA-MB-231 cells [8]) | colony formation, MCF-7 (MCF-7 [9]) | duration and reversibility of the effect on cell viability, MCF-7 (MCF-7 cells [10])
N.N.[Cl][Pt][Cl] [cisplatin] |  |  |  |  |  | comparable |  | lower effect |  |  |  |  |  |  |  |  | 
O=C(Nc1cc(Cl)ccc1Cl)c1c[nH]c2ccc(Cl)cc2c1=O [Compound 2b] |  |  |  |  |  |  |  |  | 5.18 µM | able to inhibit topoisomerase II activity |  |  |  |  |  |  | 
O=C1C=CC(=O)c2ccccc21 [1,4-Naphthoquinone, 1,4-naphthoquinone, reference compound] | 29.5 ± 1 µM | 19.3 ± 1.1 µM |  | 8.78 ± 1.1 µM | 0.30 ± 0.13 | comparable | 0.46 ± 0.14 |  |  |  |  | changes in the morphology |  | Significant reductions in colony formation | irreversible effect | Significant reductions in colony formation | irreversible effect
Cc1ccc(NC(=O)c2c[nH]c3ccc(Cl)cc3c2=O)cc1 [Compound 2a] |  |  |  |  |  |  |  |  | 1.92 µM | able to inhibit topoisomerase II activity |  |  |  |  |  |  | 
CCCCCCCCC/C=C\CCCCc1cc(=O)c2ccccc2n1C [Compound 3] |  |  |  |  |  |  |  |  |  |  | 15.8 ± 1.4 µM |  | 18.5 ± 1.2 µM |  |  |  | 

Further lines, with some results ahead:

IC50 (MCF-7 [1]) | IC50 (MDA-MB-231) | melting point | Compound | IC50 (MCF10A) | SI IC50 MCF10A/IC50 MCF-7 (MCF-7 [1]) | early apoptosis induction (annexin V/PI), MCF-7 (MCF-7 cells [2]) | SI IC50 MCF10A/ IC50 MDA-MB-231 (MDA-MB-231) | apoptosis profile (annexin V/PI), MDA-MB-231 (MDA-MB-231 cells [3]) | IC50 [4] | topoisomerase II activity inhibition (topoisomerase II) | IC50 [5] | spheroid morphology, MCF-7 (MCF-7 spheroids) | IC50 [6] | colony formation, MDA-MB-231 (MDA-MB-231 cells [7]) | duration and reversibility of the effect on cell viability, MDA-MB-231 (MDA-MB-231 cells [8]) | colony formation, MCF-7 (MCF-7 [9]) | duration and reversibility of the effect on cell viability, MCF-7 (MCF-7 cells [10])
19.4 ± 1.1 µM | 15.1 ± 1 µM |  | CCOC(=O)c1cn(Cc2ccccc2)c2ccc(C3=CC(=O)c4ccccc4C3=O)cc2c1=O [Compound 11b, Ethyl 1-benzyl-6-(1,4-dioxo-1,4-dihydronaphthalen-2-yl)-4-oxo-1,4-dihydroquinoline-3-carboxylate] | 10.7 ± 1.3 µM | 0.55 ± 0.13 | comparable | 0.71 ± 0.14 |  |  |  |  |  |  |  |  |  | 
14.2 ± 1.1 µM | 2.76 ± 1.2 µM |  | COc1cccc2c1C(=O)c1c(O)c3c(c(O)c1C2=O)C[C@@](O)(C(=O)CO)C[C@@H]3O[C@H]1C[C@H](N)[C@H](O)[C@H](C)O1 [Doxorubicin, reference compound] | 1.49 ± 1.3 µM | 0.10 ± 0.09 | shows early apoptosis but also shows late apoptosis/necrosis in a great proportion | 0.54 ± 0.10 | effects similar to those seen on MCF-7 cells | 0.274 µM |  | 19.3 ± 1.2 µM | changes in the morphology | 21.1 ± 1.9 µM |  |  |  | 
65.7 ± 1.1 µM | 24.1 ± 1.1 µM | > 300 °C | CCCCCn1cc(C(=O)O)c(=O)c2cc(C3=CC(=O)c4ccccc4C3=O)ccc21 [Compound 11f, 6-(1,4-dioxo-1,4-dihydronaphthalen-2-yl)-4-oxo-1-pentyl-1,4-dihydroquinoline-3-carboxylic acid] | 6.92 ± 1.1 µM | 0.11 ± 0.16 |  | 0.29 ± 0.16 |  |  |  |  |  |  |  |  | most effective | 
32.8 ± 1.1 µM | 16.4 ± 1.1 µM |  | CCCCCn1cc(C(=O)OCC)c(=O)c2cc(C3=CC(=O)c4ccccc4C3=O)ccc21 [Compound 11c, Ethyl 6-(1,4-dioxo-1,4-dihydronaphthalen-2-yl)-4-oxo-1-pentyl-1,4-dihydroquinoline-3-carboxylate] | 10.2 ± 1.1 µM | 0.31 ± 0.11 |  | 0.62 ± 0.12 | induces apoptosis |  |  |  |  |  |  | not capable of sustaining the antitumor effect after 48 h of treatment | most effective | short effect
25.1 ± 1.2 µM | 20.1 ± 1.1 µM | > 300 °C | CCn1cc(C(=O)O)c(=O)c2cc(C3=CC(=O)c4ccccc4C3=O)ccc21 [Compound 11d, 6-(1,4-dioxo-1,4-dihydronaphthalen-2-yl)-1-ethyl-4-oxo-1,4-dihydroquinoline-3-carboxylic acid] | 21.5 ± 1.2 µM | 0.85 ± 0.07 |  | 1.07 ± 0.08 |  |  |  |  | changes in the morphology |  | most effective |  |  | 
